Source: patent US9115145B2, “Tocotrienol derivatives and associated methods” (FIRST TECH INTERNATIONAL LIMITED, priority 2011, dated 2015)
Where two headings read alike, the source gives them in different places.

What was measured:
[1] = tested on: leukemia and colon cancer cell lines; assay: NCI screening at several concentrations (GI50, TGI, LC50); type: cell-based, human
Description: The human tumor cell lines of the cancer screening panel were grown in RPMI 1640 medium containing 5% fetal bovine serum and 2 mM L-glutamine. For a typical screening experiment, cells are inoculated into 96 well microtiter plates in 100 μL at plating densities ranging from 5000 to 40,000 cells/well depending on the doubling time of individual cell lines. After cell inoculation, the microtiter plates are incubated at 37° C., 5% CO2, 95% air and 100% relative humidity for 24 hours prior to addition of experimental drugs. After 24 hours, two plates of each cell line are fixed in situ with Trichloroacetic acid (“TCA”), to represent a measurement of the cell population for each cell line at the time of drug addition. Experimental drugs are solubilized in dimethyl sulfoxide at 400-fold the desired final maximum test concentration and stored frozen prior to use. At the time of drug addition, an aliquot of frozen concentrate is thawed and diluted to twice the desired final maximum test concentration with complete medium containing 50 ng/mL gentamicin. An aliquot of 100 μL of this drug dilution is added to the appropriate microtiter wells already containing 100 μL of medium, resulting in the required final drug concentrations. Following drug addition, the plates are incubated for an additional 48 h at 37° C., 5% CO2, 95% air, and 100% relative humidity. For adherent cells, the assay is terminated by the addition of cold TCA. Cells are fixed in situ by the gentle addition of 50 μL of cold 50% (w/v) TCA (final concentration, 10% TCA) and incubated for 60 min at 4° C. The supernatant is discarded, and the plates are washed five times with tap water and air dried. Sulforhodamine B (SRB) solution (100 μL) at 0.4% (w/v) in 1% acetic acid is added to each well, and plates are incubated for 10 min at room temperature. After staining, unbound dye is removed by washing five times with 1% acetic acid and the plates are air dried. Bound stain is subsequently solubilized with 10 mM trizma base, and the absorbance is read on an automated plate reader at a wavelength of 515 nm. For suspension cells, the methodology is the same except that the assay is terminated by fixing settled cells at the bottom of the wells by gently adding 50 μL of 80% TCA (final concentration, 16% TCA). FIGS. 37-74 indicate the growth inhibition effects of selected Compounds against a variety of cell lines based on the above described testing configuration. FIGS. 37-74 present the Growth percent for a given compound against the cell lines and both values and a bar chart of the difference between the mean growth percent and the growth percent which is an indication of the selectivity of the compound for that particular cell line. […]

[2] = tested on: MCF7 human breast cancer cell line; assay: MTT assay of MCF7 cells; type: cell-based; details: Homo sapiens, media containing 1% fetal bovine serum
Description: (§1) MDA-MB-231 and MCF7 cells were plated at a density of 8×10^3 cells/well and 10^4 cells/well in 96-well culture plates, respectively. The compounds were fed in serum free media containing 5% and 1% fetal bovine serum for MDA-MB-231 and MCF7 cells, respectively.

[3] = tested on: +SA mammary epithelial cells; assay: MTT assay of +SA cells (antiproliferative activity); type: cell-based, mouse
Description: The antiproliferative activities of Compounds 3-44 against the highly metastatic malignant +SA mammary epithelial cells were evaluated by MTT assay. Materials for the assay were purchased from Sigma Chemical Company (St. Louis, Mo.) unless otherwise stated. The highly malignant +SA mouse mammary epithelial cell line was serially passaged at subconfluent cell density. The +SA mammary tumor cell line was derived from an adenocarcinoma that developed spontaneously in a BALB/c female mouse. +SA cells were maintained in serum-free defined medium consisting of Dulbecco's modified Eagle's medium (DMEM)/F12 containing 5 mg/mL bovine serum albumin (BSA), 10 […], 100 U/mL soybean trypsin inhibitor, 100 U/mL penicillin G, 0.1 mg/mL streptomycin, […], and 10 ng/mL epidermal growth factor. For subculturing, cells were rinsed twice with sterile Ca2+ and Mg2+-free phosphate buffered saline (PBS) and incubated in 0.05% trypsin containing 0.025% EDTA in PBS for 5 min at 37° C. The released cells were centrifuged, resuspended in fresh media and counted using hemocytometer. A stock solution of the compounds was prepared in DMSO. Once dissolved, this solution was added to a small volume of sterile 10% BSA in water and incubated overnight at 37° C. This solution conjugated to BSA was used to prepare various concentrations (0-40 μM) of tocotrienol analogs. DMSO was added to all treatment media such that the final DMSO concentration was the same in all treatment groups within a given experiment and was always less than 0.1%. For cytotoxic studies, cells were seeded at a density of 5×10^4 cells/well (+SA cells) or 1×10^5 cells/well (CL-S1 cells) (6 wells/group) in 24-well culture plates and allowed to grow in their respective control media. After 3 days incubation period (approximately 70% confluency), cells were divided equally into various treatment groups and exposed to their respective treatments for a 24 hours incubation period. Following the 24 hours treatment period, cell viability was measured using the MTT assay.
+SA Mammary epithelial cell viable number was determined by a 3-(4,5-dimethylthiazol-2yl)-2,5-diphenyl tetrazolium bromide (MTT) colorimetric assay. On the assay day, treatment medium was replaced with fresh control medium containing 0.42 mg/mL MTT, and the cells in 24-well plates were incubated at 37° C. for 4 hours. Afterward, the medium was removed, and the MTT crystals were dissolved in isopropyl alcohol (1 mL/well). The optical density of each sample was read at 570 nm on a microplate reader (SpectraCount, Packard BioScience Company), against a blank prepared from cell-free cultures. The number of cells/well was calculated against a standard curve prepared by plating various concentrations of cells, as determined by hemocytometer, at the start of each experiment.
Differences among the various treatment groups in +SA cell cytotoxic studies were determined by analysis of variance (ANOVA) followed by Dunnett's t-test. The difference of P<0.05 was considered to be statistically significant as compared with vehicle-treated controls unless separately described. Linear regression analysis of treatment effects on viable cell number in growth and cytotoxicity studies was used to determine the 50% growth inhibition concentration (IC50) for individual treatments.

[4] = tested on: MDA-MB-231 human breast cancer cell line; assay: MTT assay of MDA-MB-231 cells; type: cell-based; details: Homo sapiens, media containing 5% fetal bovine serum
Description: as §1

[5] = tested on: MCF 10A non-tumorigenic mammary epithelial cells; assay: MTT assay of MCF10A cells; type: cell-based, human; details: for IC50: Homo sapiens; for Selectivity index: IC50 for MCF 10A divided by IC50 for +SA cell line
Description: MCF 10A (ATCC cat # CRL-10317) normal human non-tumorigenic mammary epithelial cells were maintained in serum-free defined medium consisting of Dulbecco's modified Eagle's medium (DMEM)/F12 containing 5% horse serum, 1% penicillin/streptomycin, 0.5 μg/mL hydrocortisone, 100 ng/mL cholera toxin, 10 μg/mL insulin, and 20 ng/mL epidermal growth factor (rhEGF). For subculturing, cells were rinsed twice with sterile Ca2+ and Mg2+-free phosphate buffered saline (PBS) and incubated in 0.25% trypsin containing 0.025% EDTA in PBS for 5 min at 37° C. The released cells were centrifuged, re-suspended in fresh media and counted using a hemocytometer. For testing, MCF 10A cells were plated at a density of 10×10^4 cells/well. A stock solution of the compounds was prepared in DMSO. DMSO was added to all treatment media such that the final DMSO concentration was the same in all treatment groups within a given experiment and was always less than 0.1%. The compounds were fed in serum free media. MCF10A mammary epithelial cell's viable number was determined by MTT colorimetric assay. […] IC50 values were calculated by non-linear regression using statistical software. The selectivity index indicated in the table represents the IC50 value for the MCF 10A cell line divided by the IC50 value for the +SA cell line.

[6] = tested on: 60 human tumor cell lines; assay: NCI in vitro screening against 60 human cell lines, single concentration; type: cell-based; details: 10 μM dose; negative values indicate cytotoxicity
Description: Compounds selected from Compounds 3-44 were provided to the National Cancer Institute for in vitro screening against 60-human cell lines for their ability to inhibit the growth of tumor cells in a full panel representing nine different organs (blood, lung, colon, CNS, skin, ovary, kidney, prostate, and breast). The compounds were tested at a single concentration of 10 μM, and the percentages of growth inhibitions over the sixty tested cell lines were determined. Compounds showing the highest activity were chosen for secondary assays using five different compound concentrations.
The human tumor cell lines of the cancer screening panel were grown in RPMI 1640 medium containing 5% fetal bovine serum and 2 mM L-glutamine. For a typical screening experiment, cells are inoculated into 96 well microtiter plates in 100 μL at plating densities ranging from 5000 to 40,000 cells/well depending on the doubling time of individual cell lines. After cell inoculation, the microtiter plates are incubated at 37° C., 5% CO2, 95% air and 100% relative humidity for 24 hours prior to addition of experimental drugs. After 24 hours, two plates of each cell line are fixed in situ with Trichloroacetic acid (“TCA”), to represent a measurement of the cell population for each cell line at the time of drug addition. Experimental drugs are solubilized in dimethyl sulfoxide at 400-fold the desired final maximum test concentration and stored frozen prior to use. At the time of drug addition, an aliquot of frozen concentrate is thawed and diluted to twice the desired final maximum test concentration with complete medium containing 50 ng/mL gentamicin. An aliquot of 100 μL of this drug dilution is added to the appropriate microtiter wells already containing 100 μL of medium, resulting in the required final drug concentrations. Following drug addition, the plates are incubated for an additional 48 h at 37° C., 5% CO2, 95% air, and 100% relative humidity. For adherent cells, the assay is terminated by the addition of cold TCA. Cells are fixed in situ by the gentle addition of 50 μL of cold 50% (w/v) TCA (final concentration, 10% TCA) and incubated for 60 min at 4° C. The supernatant is discarded, and the plates are washed five times with tap water and air dried. Sulforhodamine B (SRB) solution (100 μL) at 0.4% (w/v) in 1% acetic acid is added to each well, and plates are incubated for 10 min at room temperature. After staining, unbound dye is removed by washing five times with 1% acetic acid and the plates are air dried. Bound stain is subsequently solubilized with 10 mM trizma base, and the absorbance is read on an automated plate reader at a wavelength of 515 nm. For suspension cells, the methodology is the same except that the assay is terminated by fixing settled cells at the bottom of the wells by gently adding 50 μL of 80% TCA (final concentration, 16% TCA). FIGS. 37-74 indicate the growth inhibition effects of selected Compounds against a variety of cell lines based on the above described testing configuration. FIGS. 37-74 present the Growth percent for a given compound against the cell lines and both values and a bar chart of the difference between the mean growth percent and the growth percent which is an indication of the selectivity of the compound for that particular cell line.

[7] = tested on: MDA-MB-231 human breast cancer cells; assay: Wound-healing assay (cell migration); type: cell-based; details: Homo sapiens; MDA-MB-231, wound-healing assay, dose response; read-out: IC50 antimigratory activity
Description: The highly metastatic human breast cancer MDA-MB-231 cells were cultured in RPMI 1640 medium containing 10 mM HEPES, 4 mM L-glutamine, 10% fetal bovine serum, penicillin (100 IU/mL), and streptomycin (50 μg/mL), and grown in a 5% CO2 atmosphere at 37° C. Cells were plated onto sterile 24-well and allowed to recover for a confluent cell monolayer formed in each well (>95% confluence). Wounds were then inflicted to each cell monolayer using a sterile 200 μL pipette tip. Media were removed, cells monolayers were washed twice with PBS, and then fresh media containing test compounds were added to each well. Test compounds were prepared in DMSO at 5 μM concentration and added to the plates, each in triplicate using DMSO as negative control. The incubation was carried out for 24 h under serum-starved conditions, after which media was removed and cells were fixed and stained using a staining composition sold under the trade name Diff Quick (Dade Behring Diagnostics, Aguada, Puerto Rico). The stain comprised a fixative reagent containing 1.8 mg/L triarylmethane dye in methyl alcohol; a first solution of 1 g/L xanthene dye, buffer, and sodium azide (0.01%) as preservative; and a second solution of 1.25 g/L Thiazine dye mixture (0.625 g/L azure A and 0.625 g/L methylene blue) and buffer. The number of cells migrated on the scratched wound were counted under the microscope in three or more randomly selected fields (magnification: 400×). Final results are expressed as mean±SEM per 400× field. The wound-healing assay is a simple method for the study of directional cell migration in vitro.
Compounds were tested for their ability to inhibit the migration of the highly metastatic MDA-MB-231 human breast cancer cells in the wound-healing assay using the procedure described above. Compounds 6, 10, 12, 13, 24, 26, 27, and 29 inhibited the migration of more than 50% of the human breast cancer cells MDA-MB-231 in the wound healing assay at 5 μM dose. […] The antimigratory activity of tocotrienols may be enhanced by a terminal aromatic functionality. The presence of electron withdrawing group, such as nitro in Compound 29, may eliminate the antiproliferative activity yet retain the antimigratory activity of the compound. While the electron donating groups, such as OH and OMe found in Compounds 23 and 26, respectively, retained both antiproliferative and antimigratory activities.
Utilizing similar procedures follow-up testing was conducted on a variety of compounds using a range of compound concentrations. The results of follow-up antimigratory testing are shown in FIG. 35B and Table III below with IC50 values calculated using statistical software.

[8] = MCF-10A, MCF10A cells, Table II, non-linear regression, read-out: MCF10A (IC50)
[9] = MCF 10A non-tumorigenic cells, Table I, read-out: IC50 MCF 10A

Row | Compound | GI50 [1] | IC50 [2] [µM] | antiproliferative activity against +SA mammary tumor cells (in words) ([3]; described from FIG. 32 / text) | IC50 [4] [µM] | IC50 [5, 8] [µM] | IC50 [5, 9] [µM] | Selectivity index [5] | IC50 ([3]; Mus musculus, +SA cell, 24 hours treatment, read-out: IC50 antiproliferative activity against +SA mammary epithelial cells) [µM] | mean percent growth across all 60 cell lines (mean 60) [6] | IC50 [7] [µM]
1 | CC(C)=CCC/C(C)=C/CC/C(C)=C/CC[C@]1(C)CCc2c3c(c(C)c(C)c2O1)OCN(CCCCCO)C3 [Compound 17, 5-((R)-5,6,8-trimethyl-8-((3E,7E)-4,8,12-trimethyltrideca-3,7,11-trienyl)-9,10-dihydrochromeno[5,6-e][1,3]oxazin-2(1H,3H,8H)-yl)pentan-1-ol] | nanomolar | > 20 | very high activities | > 50 | 8.9 | 8.9 | 5.24 | – | – | –
2 | CC(C)=CCC/C(C)=C/CC/C(C)=C/CC[C@]1(C)CCc2c(CNCCc3ccc(O)cc3)c(O)c(C)c(C)c2O1 [Compound 31, (R)-5-((4-hydroxyphenethylamino)methyl)-2,7,8-trimethyl-2-((3E,7E)-4,8,12-trimethyltrideca-3,7,11-trienyl)chroman-6-ol] | – | – | – | – | – | – | – | 0.47 | comparable to the activity of Compound 1 | –
3 | CC(C)=CCC/C(C)=C/CC/C(C)=C/CC[C@]1(C)CCc2c3c(cc(C)c2O1)OCN(CCCCO)C3 [Compound 36, 4-((R)-6,8-dimethyl-8-((3E,7E)-4,8,12-trimethyltrideca-3,7,11-trienyl)-9,10-dihydrochromeno[5,6-e][1,3]oxazin-2(1H,3H,8H)-yl)butan-1-ol] | – | 16.3 | – | > 5 | 4.2 | 4.2 | 2.34 | – | negative | 2.2
